Here are results for 13 compounds from patent US20260042762A1 (Kymera Therapeutics, Inc., priority 2018, published 2026).

Where a name gives a salt, the structure may show the parent alone.

One assay addresses T1, MerTK (Homo sapiens, UniProt Q12866).
T1 construct: endogenous in cells; host or cells: Jurkat cells
T1 sequence (Q12866 21-999): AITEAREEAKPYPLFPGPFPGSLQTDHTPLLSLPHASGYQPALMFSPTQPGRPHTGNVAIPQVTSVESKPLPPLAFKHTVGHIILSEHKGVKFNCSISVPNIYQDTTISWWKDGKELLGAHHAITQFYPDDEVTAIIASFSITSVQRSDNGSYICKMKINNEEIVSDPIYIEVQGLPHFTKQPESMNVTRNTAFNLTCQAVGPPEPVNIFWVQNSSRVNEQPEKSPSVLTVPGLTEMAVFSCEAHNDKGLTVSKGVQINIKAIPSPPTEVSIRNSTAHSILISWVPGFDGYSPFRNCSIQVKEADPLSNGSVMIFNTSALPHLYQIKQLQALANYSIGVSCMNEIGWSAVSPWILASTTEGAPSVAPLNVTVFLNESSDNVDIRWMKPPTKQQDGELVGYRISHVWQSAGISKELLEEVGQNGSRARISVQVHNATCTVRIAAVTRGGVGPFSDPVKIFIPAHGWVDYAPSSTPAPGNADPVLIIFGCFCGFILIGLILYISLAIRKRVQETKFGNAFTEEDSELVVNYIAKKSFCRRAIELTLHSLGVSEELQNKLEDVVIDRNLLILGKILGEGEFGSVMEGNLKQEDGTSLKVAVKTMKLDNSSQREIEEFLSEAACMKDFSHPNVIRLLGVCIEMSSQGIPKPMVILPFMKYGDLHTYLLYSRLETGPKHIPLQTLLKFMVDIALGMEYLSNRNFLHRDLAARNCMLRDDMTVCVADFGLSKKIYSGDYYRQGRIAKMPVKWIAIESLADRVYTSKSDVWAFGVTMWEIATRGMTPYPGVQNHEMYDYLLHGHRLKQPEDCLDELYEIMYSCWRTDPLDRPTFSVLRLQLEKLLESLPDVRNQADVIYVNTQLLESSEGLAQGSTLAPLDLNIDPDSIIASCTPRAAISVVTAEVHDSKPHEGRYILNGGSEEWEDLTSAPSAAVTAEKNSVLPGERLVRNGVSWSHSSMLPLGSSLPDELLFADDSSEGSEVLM
Briefly: MerTk degradation in Jurkat cells (Western blot). Conditions: 0.001-1 μM, 4 hour-incubation at 37° C., read-out: Jurkat Max % MerTK Degradation. The format is cell-based. The protocol: Compounds were reconstituted in DMSO to make 10 mM stock solutions. […] Cells were seeded into 6-well plates with about 5×10^6 cells per well. 2 μL of diluted compounds were added to cells to the final concentration of 0.001-1 μM. After a 4 hour-incubation at 37° C., cells were collected into 2 mL Eppendorf tubes and centrifuged at 1,000 rpm for 5 min. The cell pellets were washed with DPBS (1×) once and resuspended in 60 μL RIPA lysis buffer with Halt Protease and Phophatase Inhibitor Cocktail. The cells were lysed on ice for 10 min, then centrifuged at 14,000 rpm for 10 min at 4° C. and the supernatants were collected for western blots.
The protein concentration of cell lysates was quantified with Pierce™ BCA Protein Assay Kit. […] BCA working reagents were prepared by mixing BCA reagent A with reagent B in 50: 1 ratio. 200 μL of the BCA working reagents were added to 25 μL of BCA standard or cell lysates in microplate, and mixed thoroughly on a plate shaker for 30 seconds. After incubation at 37° C. for 30 min, the absorbance of samples at 562 nm were measured with EnVision Plate Reader.
Protein lysates were prepared in NuPAGE™ LDS sample buffer and NuPAGE™ sample reducing agent, and incubated at 95° C. for 5 min. […] The proteins were transferred to low fluorescence PVDF membranes using the Trans-Blot Turbo Transfer System. Membranes were then blocked in Odyssey blocking buffer at RT for 1 h followed by primary incubation at 4° C. overnight. The primary antibodies were MerTK rabbit monoclonal antibody and actin mouse monoclonal antibody. Membranes were washed three times with TBST (1×), and then incubated with IR Dye 800 CW Goat anti-rabbit and IR Dye 700 CW Goat anti-mouse secondary antibodies in 1:10,000 dilution at RT for 1 h. The Western blot images were obtained using Odyssey Imaging System.
For orientation: A western blot detects proteins with antibodies after separation by electrophoresis.
Turning to `CN1CCN(Cc2ccc(-c3ccc(CO[C@H]4CCC[C@@H]4NC(=O)c4cc(-c5cnn(CCCCC(=O)NCCCOCCCc6ccc7c(c6)n(C)c(=O)n7C6CCC(=O)NC6=O)c5)cnc4N)cc3)cc2)CC1` (stereo partly shown) [I-39, formic acid], the Dmax is over 50%.

Staying with this assay, now noted: Jurkat, 4 h, 0.001-1 μM, 4 hour-incubation at 37° C., read-out: Jurkat Max % MerTK Degradation.
Take `CCCCNc1ncc2c(-c3ccc(CN4CCN(CCOCCOCCCc5ccc6c(c5)n(C)c(=O)n6[C@H]5CCC(=O)NC5=O)CC4)cc3)cn([C@H]3CC[C@H](O)CC3)c2n1` [I-42, 3-[5-[3-(2-[2-[4-([4-[2-(butylamino)-7-[trans-4-hydroxycyclohexyl]-7H-pyrrolo[2,3-d]pyrimidin-5-yl]phenyl]methyl)piperazin-1-yl]ethoxy]ethoxy)propyl]-3-methyl-2-oxo-2,3-dihydro-1H-1,3-benzodiazol-1-yl]piperidine-2,6-dione; formic acid]: the Dmax was over 50%.

As for `CCCCNc1ncc2c(-c3ccc(CN4CCN(CCOCCCc5ccc6c(c5)n(C)c(=O)n6[C@H]5CCC(=O)NC5=O)CC4)cc3)cn([C@H]3CC[C@H](O)CC3)c2n1` [I-43, 3-[5-(3-[2-[4-([4-[2-(butylamino)-7-[trans-4-hydroxycyclohexy1]-7H-pyrrolo[2,3-d]pyrimidin-5-yl]phenyl]methyl)piperazin-1-y1]ethoxy]propyl)-3-methyl-2-oxo-2,3-dihydro-1H-1,3-benzodiazol-1-yl]piperidine-2,6-dione; formic acid], the Dmax was over 50%.

Take `CCCCNc1ncc2c(-c3ccc(CN4CCN(CCCc5ccc6c(c5)n(C)c(=O)n6[C@H]5CCC(=O)NC5=O)CC4)cc3)cn([C@H]3CC[C@H](O)CC3)c2n1` [I-44, 3-(5-[3-[4-([4-[2-(Butylamino)-7-[trans-4-hydroxycyclohexyl]-7H-pyrrolo[2,3-d]pyrimidin-5-yl]phenyl]methyl)piperazin-1-yl]propyl]-3-methyl-2-oxo-2,3-dihydro-1H-1,3-benzodiazol-1-y1)piperidine-2,6-dione; formic acid]: the Dmax is under 20%.

Regarding `CCCCNc1ncc2c(-c3ccc(CNCCOCCOCCCc4ccc5c(c4)n(C)c(=O)n5[C@H]4CCC(=O)NC4=O)cc3)cn([C@H]3CC[C@H](O)CC3)c2n1` [I-45, 3-[5-[3-(2-[2-[([4-[2-(butylamino)-7-[trans-4-hydroxycyclohexy1]-7H-pyrrolo[2,3-d]pyrimidin-5-yl]phenyl]methyl)amino]ethoxy]ethoxy)propyl]-3-methyl-2-oxo-2,3-dihydro-1H-1,3-benzodiazol-1-y1]piperidine-2,6-dione; formic acid], the Dmax was over 50%.

In the case of `CCCCNc1ncc2c(-c3ccc(CNCCCc4ccc5c(c4)n(C)c(=O)n5[C@H]4CCC(=O)NC4=O)cc3)cn([C@H]3CC[C@H](O)CC3)c2n1` [I-46, 3-(5-[3-[([4-[2-(butylamino)-7-[trans-4-hydroxycyclohexyl]-7H-pyrrolo[2,3-d]pyrimidin-5-yl]phenyl]methyl)amino]propyl]-3-methyl-2-oxo-2,3-dihydro-1H-1,3-benzodiazol-1-yl)piperidine-2,6-dione; formic acid], the Dmax was over 50%.

On to `Cn1c(=O)n([C@H]2CCC(=O)NC2=O)c2ccc(CCCOCCOCCOCCNCc3ccc(-c4cn([C@H]5CC[C@H](O)CC5)c5nc(NCCC(F)(F)F)ncc45)cc3)cc21` [I-47, 3-[3-methyl-2-oxo-5-[1-(4-[7-[trans-4-hydroxycyclohexy1]-2-[(3,3,3-trifluoropropyl)amino]-7H-pyrrolo[2,3-d]pyrimidin-5-yl]phenyl)-5,8,11-trioxa-2-azatetradecan-14-y1]-2,3-dihydro-1H-1,3-benzodiazol-1-yl]piperidine-2,6-dione], for which the Dmax is over 50%.

Consider `Cn1c(=O)n([C@H]2CCC(=O)NC2=O)c2ccc(CCCOCCOCCNCc3ccc(-c4cn([C@H]5CC[C@H](O)CC5)c5nc(NCCC(F)(F)F)ncc45)cc3)cc21` [I-48, 3-(3-methyl-2-oxo-5-[3-[2-(2-[[(4-[7-[trans-4-hydroxycyclohexyl]-2-[(3,3,3-trifluoropropyl)amino]-7H-pyrrolo[2,3-d]pyrimidin-5-y1]phenyl)methyl]amino]ethoxy)ethoxy]propyl]-2,3-dihydro-1H-1,3-benzodiazol-1-y1)piperidine-2,6-dione], for which the Dmax is over 50%.

With `CCCCNc1ncc2c(-c3ccc(CN4CCN(CCOCCOCCOCCCc5ccc6c(c5)n(C)c(=O)n6[C@H]5CCC(=O)NC5=O)CC4)cc3)nn([C@H]3CC[C@H](O)CC3)c2n1` [I-49, 3-(5-[3-[2-(2-[2-[4-([4-[6-(butylamino)-1-[trans-4-hydroxycyclohexy1]-1H-pyrazolo[3,4-d]pyrimidin-3-yl]phenyl]methyl)piperazin-1-yl]ethoxy]ethoxy)ethoxy]propyl]-3-methyl-2-oxo-2,3-dihydro-1H-1,3-benzodiazol-1-y1)piperidine-2,6-dione; formic acid], the Dmax is over 50%.

For `CCCCNc1ncc2c(-c3ccc(CN4CCN(CCOCCOCCCc5ccc6c(c5)n(C)c(=O)n6[C@H]5CCC(=O)NC5=O)CC4)cc3)nn([C@H]3CC[C@H](O)CC3)c2n1` [I-50, 3-[5-[3-(2-[2-[4-([4-[6-(butylamino)-1-[trans-4-hydroxycyclohexyl]-1H-pyrazolo[3,4-d]pyrimidin-3-yl]phenyl]methyl)piperazin-1-yl]ethoxy]ethoxy)propyl]-3-methyl-2-oxo-2,3-dihydro-1H-1,3-benzodiazol-1-y1]piperidine-2,6-dione; formic acid], the Dmax is over 50%.

In the case of `Cn1c(=O)n([C@H]2CCC(=O)NC2=O)c2ccc(CCCOCCCOCCCNCc3ccc(-c4cn([C@H]5CC[C@H](O)CC5)c5nc(NCCC(F)(F)F)ncc45)cc3)cc21` [I-51, 3-(3-methyl-2-oxo-5-[3-[3-(3-[[(4-[7-[trans-4-hydroxycyclohexy1]-2-[(3,3,3-trifluoropropyl)amino]-7H-pyrrolo[2,3-d]pyrimidin-5-yl]phenyl)methyl]amino]propoxy)propoxy]propyl]-2,3-dihydro-1H-1,3-benzodiazol-1-y1)piperidine-2,6-dione hydrochloride], the Dmax was over 50%.

Take `Cn1c(=O)n([C@H]2CCC(=O)NC2=O)c2cccc(CCCOCCCOCCCNCc3ccc(-c4cn([C@H]5CC[C@H](O)CC5)c5nc(NCCC(F)(F)F)ncc45)cc3)c21` [I-52, 3-(3-methyl-2-oxo-4-[3-[3-(3-[[(4-[7-[trans-4-hydroxycyclohexyl]-2-[(3,3,3-trifluoropropyl)amino]-7H-pyrrolo[2,3-d]pyrimidin-5-yl]phenyl)methyl]amino]propoxy)propoxy]propyl]-2,3-dihydro-1H-1,3-benzodiazol-1-y1)piperidine-2,6-dione hydrochloride]: the Dmax is over 50%.

`CCCCNc1ncc2c(-c3ccc(CNCCCCOCCCCc4ccc5c(c4)n(C)c(=O)n5[C@H]4CCC(=O)NC4=O)cc3)cn([C@H]3CC[C@H](O)CC3)c2n1` [I-53, 3-[5-(4-[4-[([4-[2-(butylamino)-7-[trans-4-hydroxycyclohexyl]-7H-pyrrolo[2,3-d]pyrimidin-5-yl]phenyl]methyl)amino]butoxy]butyl)-3-methyl-2-oxo-2,3-dihydro-1H-1,3-benzodiazol-1-yl]piperidine-2,6-dione hydrochloride]: the Dmax was over 50%.
